What was measured:
Settings in all cases: exposure time: 72 h
E34 [1] = patient-derived glioblastoma stem cells of proneural subtype; test: phenotypic distance (Euclidean, principal components) from DMSO controls (arbitrary units); higher = stronger morphological change
E13 [2] = patient-derived glioblastoma stem cells of classical subtype; test: as above
E21 [3] = patient-derived glioblastoma stem cells of mesenchymal subtype; test: as above
FT3469 [4] = normal neural stem cell line; test: as above
E28 [5] = patient-derived glioblastoma stem cells of classical subtype; test: as above
E57 [6] = patient-derived glioblastoma stem cells of mesenchymal subtype; test: as above
E31 [7] = patient-derived glioblastoma stem cells of proneural subtype; test: as above
E34 [8] = test: surviving fraction (nuclei count normalised to DMSO); higher = more cells surviving (less toxic)
E13 [9] = test: as above
E21 [10] = test: as above
FT3469 [11] = test: as above
E28 [12] = test: as above
E57 [13] = test: as above
E31 [14] = test: as above
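For phenotypic distance (Euclidean, principal components) from DMSO controls in this document: cell Painting imaging in 384-well plates, CellProfiler features reduced to at least 20 principal components, Euclidean distance versus same-plate DMSO vehicle wells (0.1% v/v), median over six images per well.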
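For surviving fraction (nuclei count normalised to DMSO) in this document: nuclei counted by high-content imaging of Hoechst-stained cells in laminin-coated 384-well plates, relative to 0.1% DMSO vehicle wells, with staurosporine as cell-death control.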

CCc1c2c(nc3ccc(OC(=O)N4CCC(N5CCCCC5)CC4)cc13)-c1cc3c(c(=O)n1C2)COC(=O)[C@]3(O)CC [Irinotecan]
Settings	phenotypic distance	surviving fraction
E13 [2], 4.1 nM	0.394	–
E13 [2], 12.3 nM	1.01	–
E13 [2], 37 nM	0.761	–
E13 [2], 111.1 nM	0.76	–
E13 [2], 333.3 nM	1.35	–
E13 [2], 1000 nM	2.55	–
E13 [2], 3000 nM	5.65	–
E13 [9], 4.1 nM	–	0.966
E13 [9], 12.3 nM	–	1.03
E13 [9], 37 nM	–	1
E13 [9], 111.1 nM	–	0.975
E13 [9], 333.3 nM	–	0.974
E13 [9], 1000 nM	–	0.784
E13 [9], 3000 nM	–	0.418
E21 [3], 4.1 nM	0.618	–
E21 [3], 12.3 nM	1.21	–
E21 [3], 37 nM	0.691	–
E21 [3], 111.1 nM	1.31	–
E21 [3], 333.3 nM	1.88	–
E21 [3], 1000 nM	3.97	–
E21 [3], 3000 nM	5.51	–
E21 [10], 4.1 nM	–	1.03
E21 [10], 12.3 nM	–	1.08
E21 [10], 37 nM	–	0.918
E21 [10], 111.1 nM	–	1.03
E21 [10], 333.3 nM	–	0.883
E21 [10], 1000 nM	–	0.589
E21 [10], 3000 nM	–	0.124
E28 [5], 4.1 nM	0.5	–
E28 [5], 12.3 nM	0.951	–
E28 [5], 37 nM	0.608	–
E28 [5], 111.1 nM	0.966	–
E28 [5], 333.3 nM	1.51	–
E28 [5], 1000 nM	3.61	–
E28 [5], 3000 nM	4.49	–
E28 [12], 4.1 nM	–	1.21
E28 [12], 12.3 nM	–	1.07
E28 [12], 37 nM	–	1.07
E28 [12], 111.1 nM	–	0.969
E28 [12], 333.3 nM	–	0.765
E28 [12], 1000 nM	–	0.541
E28 [12], 3000 nM	–	0.302
E31 [7], 4.1 nM	0.6	–
E31 [7], 12.3 nM	0.75	–
E31 [7], 37 nM	0.721	–
E31 [7], 111.1 nM	0.569	–
E31 [7], 333.3 nM	1.07	–
E31 [7], 1000 nM	1.39	–
E31 [7], 3000 nM	3.35	–
E31 [14], 4.1 nM	–	0.946
E31 [14], 12.3 nM	–	1.1
E31 [14], 37 nM	–	0.899
E31 [14], 111.1 nM	–	0.922
E31 [14], 333.3 nM	–	0.946
E31 [14], 1000 nM	–	0.579
E31 [14], 3000 nM	–	0.144
E34 [1], 4.1 nM	0.814	–
E34 [1], 12.3 nM	0.597	–
E34 [1], 37 nM	0.83	–
E34 [1], 111.1 nM	0.866	–
E34 [1], 333.3 nM	2.22	–
E34 [1], 1000 nM	4.25	–
E34 [1], 3000 nM	3.72	–
E34 [8], 4.1 nM	–	1.01
E34 [8], 12.3 nM	–	0.922
E34 [8], 37 nM	–	0.796
E34 [8], 111.1 nM	–	0.981
E34 [8], 333.3 nM	–	0.942
E34 [8], 1000 nM	–	0.675
E34 [8], 3000 nM	–	0.542
E57 [6], 4.1 nM	0.685	–
E57 [6], 12.3 nM	0.929	–
E57 [6], 37 nM	0.554	–
E57 [6], 111.1 nM	0.781	–
E57 [6], 333.3 nM	1.52	–
E57 [6], 1000 nM	3.59	–
E57 [6], 3000 nM	7.66	–
E57 [13], 4.1 nM	–	1.08
E57 [13], 12.3 nM	–	1.02
E57 [13], 37 nM	–	0.935
E57 [13], 111.1 nM	–	0.931
E57 [13], 333.3 nM	–	1.01
E57 [13], 1000 nM	–	0.658
E57 [13], 3000 nM	–	0.189
FT3469 [4], 4.1 nM	0.701	–
FT3469 [4], 12.3 nM	1.1	–
FT3469 [4], 37 nM	1.06	–
FT3469 [4], 111.1 nM	1.22	–
FT3469 [4], 333.3 nM	1.84	–
FT3469 [4], 1000 nM	2.27	–
FT3469 [4], 3000 nM	2.46	–
FT3469 [11], 4.1 nM	–	1.03
FT3469 [11], 12.3 nM	–	0.94
FT3469 [11], 37 nM	–	0.96
FT3469 [11], 111.1 nM	–	0.904
FT3469 [11], 333.3 nM	–	0.739
FT3469 [11], 1000 nM	–	0.748
FT3469 [11], 3000 nM	–	0.648
